Data: BigSolDB 2.1

NCCCCCCN
solubility (mole fraction)
Conditions | in 1,4-dioxane | in cyclohexane | in isobutanol | in n-butanol | in n-hexane | in n-propanol | in toluene
278.15 K | – | 0.0071 | 0.193 | 0.35 | 0.0103 | 0.315 | 0.132
283.15 K | 0.135 | 0.0092 | 0.236 | 0.389 | 0.0149 | 0.354 | 0.161
288.15 K | 0.194 | 0.0126 | 0.288 | 0.448 | 0.018 | 0.391 | 0.209
293.15 K | 0.267 | 0.0187 | 0.351 | 0.508 | 0.0268 | 0.431 | 0.259
298.15 K | 0.348 | 0.0309 | 0.427 | 0.584 | 0.0449 | 0.485 | 0.334
303.15 K | 0.467 | 0.053 | 0.521 | 0.652 | 0.0729 | 0.552 | 0.434
